# Data from patent US20250000822A1, “USE OF 2-HYDROXYBENZYLAMINE FOR THE TREATMENT OF SYSTEMIC LUPUS” (Vanderbilt University, priority 2019, published 2025).
# Entries after “also recorded” stand apart in the source; their conditions may differ.
# What was measured:
# [1] = in vitro, in animals, or in humans, to date; cited from earlier work
# B6.SLE123 mice [2] = test: SLE-associated renal injury and dysfunction, B6.SLE123 mice; type: in vivo
# Description: Kidneys were sectioned and stained with […] silver stain; (A) representative glomeruli are presented. (B) Mice received IP injection of 4% normal saline at 10% of body weight and urine output was measured over 4 hours. (C) Urine albumin/creatine ratio. (D) Urinary NGAL. (n=6-8, *P<0.05, **P<0.01, ****P<0.0001).
# The present inventors have also shown that 2-HOBA protects against SLE-associated renal injury and dysfunction. […] To assess renal function, 2-HOBA treated and untreated B6.SLE123 animals were injected with 4% normal saline at a volume equal to 10% of their body weight, and urine volume was measured over 4 hours.
# healthy human volunteers [3] = details: 500 and 750 mg TID for 2 weeks; cited from earlier work
# [4] = reaction of 2-HOBA with isoLGs (isoLG scavenging)
# Source text: (§1) 2-HOBA, for example, is naturally found in buckwheat seeds. 2-HOBA is highly reactive and found to react with isoLGs at a rate more than 3 orders of magnitude faster than the e-amine of lysine (see FIG. 3). By selectively reacting with isoLGs, 2-HOBA inhibits isoLG:protein adduct formation and subsequent isoLG-induced cell dysfunction.
# B6.SLE123 mice [5] = test: SLE-associated renal inflammation, B6.SLE123 mice; type: in vivo
# Description: Single cell suspensions were prepared from freshly isolated mouse kidney via enzymatic digestion and mechanical dissociation. Live cell singlets were analyzed. Representative FACS plots are presented for (A) CD3^+ T-cells. Quantitation of (B) CD45^+ leukocytes and (C) CD3^+ T-cells are represented. (n=6-8, *P<0.05, **P<0.01).
# The present inventors have also shown that 2-HOBA reduces SLE-associated inflammation.
# HepG2 cells = test: protection of HepG2 cells against H2O2-induced cytotoxicity; type: cell-based
# Source text: as §1
# healthy human volunteers [6] = details: single doses up to 825 mg (highest dose tested); cited from earlier work
# B6.SLE123 mice [7] = test: isoLG adduct accumulation in monocytes and dendritic cells of SLE-prone mice (flow cytometry); type: in vivo; details: B6.SLE123 mice treated from 7 weeks of age, analysed at 32 weeks
# Description: Quantitation of isoLG-adduct containing cells in (C) splenic DCs (D) circulating monocytes. (n=5-9, *P<0.05, **P<0.01, ***P<0.001, ****P<0.0001).
# The present inventors have also shown that 2-HOBA reduces isoLG accumulation in monocytes and dendritic cells (DCs) of SLE-prone mice. B6.SLE123 mice were treated with 2-HOBA starting at 7 weeks of age (prior to disease presentation). At 32 weeks of age, peripheral blood, spleen, and bone marrow cells were harvested from B6.SLE123 and control (C57BL/6) mice. Flow cytometry was used to detect the surface markers CD11c, IAb, CD11b, F4/80, and Ly6c and isoLG adducts.
# B6.SLE123 mice [8] = test: plasma cell expansion and antibody titers, B6.SLE123 mice; type: in vivo
# Description: (A) Representative FACS plots displaying CD138^+ and intracellular Igκ-light-chain^+ plasma cells from bone marrow. Quantitation of plasma cells as a percentage of CD45 cells are represented for (B) bone marrow. (C) Anti-dsDNA IgG antibody and (D) total plasma IgG at 1:100K dilution were analyzed by ELISA. (n=5-7, *P<0.05, **P<0.01, ***P<0.001, ****P<0.0001).
# The present inventors have also shown that 2-HOBA reduces bone marrow plasma cell expansion and anti-dsDNA antibody titers. SLE is associated with an expansion of plasma cells and an amplification of auto-antibodies. Autoreactive plasma cells are believed to play an important role in SLE by generating antibodies that lead to the creation of immune complexes which deposit in peripheral tissues. Flow cytometry was performed to identify CD138^+/Igκ-light-chain^+ plasma cells in spleen and bone marrow cell preparations from B6.SLE123 animals treated with vehicle or 2-HOBA. B6.SLE123 animals had significant accumulation of spleen and bone marrow plasma cells which were attenuated by 2-HOBA (FIG. 7A-C).
# [9] = SLE-prone mice, kidney sections
# [10] = B6.SLE123, CD138+/Igκ-light-chain+ cells, flow cytometry
smiles,measurement,setting,value
"NCc1ccccc1O [2-HOBA, 2-hydroxybenzylamine]",serious adverse effects or potential issues observed,[1],no serious adverse effects or potential issues
same,albumin to creatinine ratio,"B6.SLE123 mice [2]; B6.SLE123 mice, urine",improved
same,NGAL excretion,"B6.SLE123 mice [2]; B6.SLE123 mice, urine, marker of tubular injury",improved
same,urine volume,"B6.SLE123 mice [2]; B6.SLE123 mice, over 4 hours after injection of 4% normal saline at 10% of body weight",improved
same,glomerular hypercellularity,B6.SLE123 mice [2]; [9],markedly improved
same,immune complex deposition,B6.SLE123 mice [2]; [9],markedly improved
same,renal injury and dysfunction,B6.SLE123 mice [2]; mouse model of SLE (FIG. 6 legend),attenuates
same,accumulation of 2-HOBA and its primary metabolite,healthy human volunteers [3],low
same,serious adverse events,healthy human volunteers [3],no serious adverse events
same,tolerability of multiple doses,healthy human volunteers [3],well tolerated
same,isoLG scavenging,[4],potent isoLG scavengers
same,"rate of reaction with isoLGs, faster than the e-amine of lysine",[4]; relative to e-amine of lysine,more than 3 orders of magnitude
same,renal inflammation,B6.SLE123 mice [5],markedly reduced
same,renal CD3+ T-cells,"B6.SLE123 mice [5]; kidney, flow cytometry",reduction
same,renal CD45+ cells,"B6.SLE123 mice [5]; kidney, flow cytometry",reduction
same,protection against H2O2-induced cytotoxicity,HepG2 cells,dramatically protected
same,safety and tolerability of single doses,healthy human volunteers [6],safe and well-tolerated
same,isoLG accumulation in monocytes,B6.SLE123 mice [7]; peripheral blood monocytes,efficient scavenging; also recorded: significantly attenuated
same,isoLG accumulation in DCs,B6.SLE123 mice [7]; splenic dendritic cells,efficient scavenging; also recorded: significantly attenuated
same,plasma anti-dsDNA antibody titers,"B6.SLE123 mice [8]; B6.SLE123, ELISA",reduces; also recorded: markedly lower
same,total IgG antibody titers,"B6.SLE123 mice [8]; B6.SLE123, plasma, ELISA",reduces; also recorded: markedly lower
same,accumulation of bone marrow plasma cells,B6.SLE123 mice [8]; [10],reduces; also recorded: attenuated
same,accumulation of spleen plasma cells,B6.SLE123 mice [8]; [10],attenuated
